In one experiment the target is T1, human GPR40 (Homo sapiens, UniProt O14842).
T1 construct: expressed in transfected cells
Nature of the experiment: GPR40 calcium flux assay, HEK293 cells stably expressing human GPR40. The settings on record: transfected HEK293 cells stably expressing human GPR40, Fluo 8 dye, read-out: hGPR40 Ca2+ Assay EC50. Format: cell-based. As for the experimental part: (§1) Compounds were tested in a calcium flux assay using transfected HEK293 cells stably expressing either human GPR40 or rat GPR40. Human GPR40 expressing cells were cultured in DMEM-High Glucose media supplemented with 10% fetal bovine serum, 1×L-Glutamine, 1×Penicillin/Streptomycin and 500 μg/mL G418. Rat GPR40 expressing cells were cultured in DMEM-High Glucose media supplemented with 10% fetal bovine serum and 1 μg/mL puromycin. Cells were plated into poly-D-lysine coated 384-well plates and cultured overnight in a 37° C. humidified tissue culture incubator under 5% CO2/[…] atmosphere. On the day of the experiment, the culture media was replaced with assay buffer (HBSS, 20 mM HEPES, 0.1% BSA) and the cells incubated at 37° C. for 1 h. Calcium-sensitive fluorescent dye (Fluo 8 No-Wash Calcium Dye, ABD Bioquest) was then added and the cells incubated for another 30 min at 37° C. followed by 15 min at room temperature while protected from the light. The cell plate and a plate of diluted compounds of Formula (I) were loaded into a fluorescent plate reader that added compounds onto the cells while measuring the fluorescence intensity of each well. The plate reader recorded fluorescence intensity at 1 second intervals for 8 min and provided the data for analysis in an Excel format. EC50 values were calculated using Prism (GraphPad) software.
In general terms: A change in cytosolic calcium serves as a functional read-out for many receptors and channels.

A further experiment concerns the target T2, rat GPR40 (Rattus norvegicus, UniProt Q8K3T4).
T2 construct: expressed in transfected cells
Nature of the experiment: GPR40 calcium flux assay, HEK293 cells stably expressing rat GPR40. Format: cell-based. To be noted: transfected HEK293 cells stably expressing rat GPR40, Fluo 8 dye, read-out: rGPR40 Ca2+ Assay EC50. As for the experimental part: as §1

A word on the EC50: it is the midpoint of the concentration-response curve.

SMILES strings stand for the structures.

T2 sequence (Q8K3T4 whole entry): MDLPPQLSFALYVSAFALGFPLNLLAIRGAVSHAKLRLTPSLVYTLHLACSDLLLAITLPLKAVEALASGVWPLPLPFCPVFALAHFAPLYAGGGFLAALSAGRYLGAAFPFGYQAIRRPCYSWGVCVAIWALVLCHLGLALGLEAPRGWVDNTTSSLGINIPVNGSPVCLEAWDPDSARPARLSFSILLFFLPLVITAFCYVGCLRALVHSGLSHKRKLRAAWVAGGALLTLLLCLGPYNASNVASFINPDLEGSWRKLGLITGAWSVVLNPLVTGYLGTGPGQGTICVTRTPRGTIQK
T1 sequence (O14842 whole entry): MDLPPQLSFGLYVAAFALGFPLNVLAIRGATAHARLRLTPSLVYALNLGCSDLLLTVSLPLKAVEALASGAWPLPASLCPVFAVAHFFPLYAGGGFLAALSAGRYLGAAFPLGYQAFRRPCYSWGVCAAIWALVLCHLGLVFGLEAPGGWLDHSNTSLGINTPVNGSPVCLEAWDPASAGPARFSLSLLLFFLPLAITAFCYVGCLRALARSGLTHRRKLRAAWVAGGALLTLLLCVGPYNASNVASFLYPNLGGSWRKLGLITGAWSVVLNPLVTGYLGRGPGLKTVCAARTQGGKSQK

For the molecule `COc1ccc(F)c([C@]2(OC)CC[C@H](COc3cccc([C@@H](CC(=O)O)C4CC4)c3)CC2)c1` [Cpd 12, (S)-3-Cyclopropyl-3-(3-(((1r,4S)-4-(2-fluoro-5-methoxyphenyl)-4-methoxycyclohexyl)methoxy)phenyl)propanoic acid], the EC50 amounted to 13.8 nM on human GPR40 and 152 nM at rat GPR40.

As to `COc1cc([C@H]2CC[C@H](COc3cccc([C@H](C4CC4)[C@@](C)(F)C(=O)O)c3)CC2)c(F)cn1` [Cpd 62], the concentration giving a half-maximal response (EC50) on human GPR40 turned out to be 0.25 nM; on rat GPR40, 0.56 nM.

As for `COc1ccc(F)c(C2CCC(COc3cccc([C@H](C4CC4)C(F)C(=O)O)c3)CC2)c1` (stereo partly drawn) [Cpd 54, (3S)-3-Cyclopropyl-2-fluoro-3-(3-(((1r,4S)-4-(2-fluoro-5-methoxyphenyl)cyclohexyl)methoxy)phenyl)propanoic acid], the 50% effective concentration (EC50) on human GPR40 amounted to 0.5 nM; at rat GPR40, 1.4 nM.

Turning to `COc1cc([C@H]2CC[C@H](COc3cc([C@H](C4CC4)C(C)(F)C(=O)O)ccn3)CC2)c(F)cn1` (stereo partly drawn) [Cpd 80, (3S)-3-Cyclopropyl-2-fluoro-3-(2-(((1r,4S)-4-(5-fluoro-2-methoxypyridin-4-yl)cyclohexyl)methoxy)pyridin-4-yl)-2-methylpropanoic acid], the values for the EC50 on human GPR40 and at rat GPR40 were 79 nM and 220 nM, respectively.

As to `CCOC(CC(=O)O)c1cccc(OC[C@H]2CC[C@@H](c3cc(OC)ccc3F)CC2)c1` (stereo partly shown) [Cpd 50, 3-Ethoxy-3-(3-(((1s,4s)-4-(2-fluoro-5-methoxyphenyl)cyclohexyl)methoxy)phenyl) propanoic acid], the concentration giving a half-maximal response (EC50) on human GPR40 stood at 500 nM; at rat GPR40 it was 656 nM.

As for `COc1cc([C@]2(OC)CC[C@@H](COc3cc([C@@H](CC(=O)O)C4CC4)ccn3)CC2)c(F)cn1` [Cpd 44, (S)-3-cyclopropyl-3-(2-(((1s,4R)-4-(5-fluoro-2-methoxypyridin-4-yl)-4-methoxycyclohexyl)methoxy)pyridin-4-yl) propanoic acid], the EC50 amounted to 9.9 nM at human GPR40 and 29 nM at rat GPR40.

On to `COc1ccc(F)c([C@H]2CC[C@H](COc3cc([C@H](C4CC4)C(C)(F)C(=O)O)ccn3)CC2)c1` (stereo partly drawn) [Cpd 79, (3S)-3-Cyclopropyl-2-fluoro-3-(2-(((1r,4S)-4-(2-fluoro-5-methoxyphenyl)cyclohexyl)methoxy)pyridin-4-yl)-2-methylpropanoic acid], for which the figures for the half-maximal effective concentration (EC50) on human GPR40 and at rat GPR40 were 13 nM and 28 nM, respectively.

Regarding `COc1ccc(C)c(C2CCC(COc3cccc([C@H](C4CC4)C(C)(F)C(=O)O)c3)CC2)c1` (stereo partly drawn) [Cpd 70, (3S)-3-Cyclopropyl-2-fluoro-3-(3-((4-(5-methoxy-2-methylphenyl)cyclohexyl)methoxy)phenyl)-2-methylpropanoic acid], the results for the EC50 on human GPR40 and at rat GPR40 were 0.16 nM and 0.15 nM, respectively.

Consider `COc1cc([C@H]2CC[C@H](COc3cccc(C(CC(=O)O)C4CC4)n3)CC2)c(F)cn1` (stereo partly shown) [Cpd 15, 3-Cyclopropyl-3-(6-(((1r,4r)-4-(5-fluoro-2-methoxypyridin-4-yl)cyclohexyl)methoxy)pyridin-2-yl)propanoic acid], for which the 50% effective concentration (EC50) at human GPR40 turned out to be 138 nM.

In the case of `C[C@](F)(C(=O)O)[C@H](c1cccc(OC[C@H]2CC[C@H](c3cc(OC(F)(F)F)ccc3F)CC2)c1)C1CC1` [Cpd 74, (2R,3S)-3-Cyclopropyl-2-fluoro-3-(3-(((1r,4S)-4-(2-fluoro-5-(trifluoromethoxy)phenyl)cyclohexyl)methoxy)phenyl)-2-methylpropanoic acid], the half-maximal effective concentration (EC50) on human GPR40 stood at 14.1 nM; at rat GPR40, 16.2 nM.

`COc1ccc(F)c([C@H]2CC[C@@H](CNc3cccc([C@@H](CC(=O)O)C4CC4)c3)CC2)c1` [Cpd 47, (S)-3-cyclopropyl-3-(3-((((1s,4R)-4-(2-fluoro-5-methoxyphenyl)cyclohexyl)methyl)amino)phenyl)propanoic acid]: the EC50 is 71.5 nM at human GPR40 and 147 nM on rat GPR40.

As for `COc1ccc(F)c([C@]2(F)CC[C@H](COc3cccc([C@@H](CC(=O)O)C4CC4)c3)CC2)c1` [Cpd 19, (S)-3-Cyclopropyl-3-(3-(((1r,4S)-4-fluoro-4-(2-fluoro-5-methoxyphenyl)cyclohexyl)methoxy)phenyl)propanoic acid], the EC50 on human GPR40 came to 82.5 nM; on rat GPR40 it was 211 nM.

Turning to `COc1cc([C@H]2CC[C@@H](COc3cc(C(CC(=O)O)C4CC4)ccn3)CC2)c(F)cn1` (stereo partly shown) [Cpd 7, 3-Cyclopropyl-3-(2-(((1s,4s)-4-(5-fluoro-2-methoxypyridin-4-yl)cyclohexyl)methoxy)pyridin-4-yl)propanoic acid], the EC50 at human GPR40 turned out to be 34.7 nM; at rat GPR40, 79.8 nM.

For `COc1cc([C@H]2CC[C@@H](COc3ccnc(C(CC(=O)O)C4CC4)c3)CC2)c(F)cn1` (stereo partly shown) [Cpd 32, 3-Cyclopropyl-3-(4-(((1s,4s)-4-(5-fluoro-2-methoxypyridin-4-yl)cyclohexyl)methoxy)pyridine-2-yl)propanoic acid], the results for the concentration for a half-maximal effect (EC50) on human GPR40 and on rat GPR40 were 59 nM and 256 nM, respectively.

With `COc1ccc(C(=O)Nc2ccccn2)c(C2CCC(COc3cccc([C@H](C4CC4)C(C)(F)C(=O)O)c3)CC2)c1` (stereo partly drawn) [Cpd 71, (3S)-3-Cyclopropyl-2-fluoro-3-(3-((4-(5-methoxy-2-(pyridin-2-ylcarbamoyl)phenyl)cyclohexyl)methoxy)phenyl)-2-methylpropanoic acid], the EC50 came out at 1.9 nM on human GPR40 and 2.36 nM at rat GPR40.

Regarding `COc1cc([C@H]2CC[C@H](COc3ccnc(C(CC(=O)O)C4CC4)c3)CC2)c(F)cn1` (stereo partly shown) [Cpd 31, 3-Cyclopropyl-3-(4-(((1r,4r)-4-(5-fluoro-2-methoxypyridin-4-yl)cyclohexyl)methoxy)pyridin-2-yl)propanoic acid], the figures for the EC50 on human GPR40 and on rat GPR40 were 26.1 nM and 54.2 nM, respectively.

As for `COc1cc(C2CCC(COc3cccc([C@@H](CC(=O)O)C4CC4)c3)C(CC(C)C)C2)c(F)cn1` (stereo partly drawn) [Cpd 30, (3S)-3-Cyclopropyl-3-(3-((4-(5-fluoro-2-methoxypyridin-4-yl)-2-isobutylcyclohexyl)methoxy)phenyl)propanoic acid], the results for the concentration for a half-maximal effect (EC50) at human GPR40 and on rat GPR40 were 2.1 nM and 29.4 nM, respectively.

`COc1ccc(F)c([C@]2(OC)CC[C@@H](COc3cccc([C@@H](CC(=O)O)C4CC4)c3)CC2)c1` [Cpd 11, (S)-3-Cyclopropyl-3-(3-(((1s,4R)-4-(2-fluoro-5-methoxyphenyl)-4-methoxycyclohexyl)methoxy)phenyl)propanoic acid]: the 50% effective concentration (EC50) was determined as 2.1 nM on human GPR40 and 18.4 nM at rat GPR40.

For the molecule `COc1ccc(F)c([C@H]2CC[C@@H](COc3cccc([C@H](C4CC4)[C@H](C)C(=O)O)c3)CC2)c1` [Cpd 53, (2S,3R)-3-cyclopropyl-3-(3-(((1s,4S)-4-(2-fluoro-5-methoxyphenyl)cyclohexyl)methoxy)phenyl)-2-methylpropanoic acid], the concentration giving a half-maximal response (EC50) on human GPR40 was determined as 2 nM; on rat GPR40, 7.7 nM.

`COc1ccc(F)c(C2CCC(OCc3cccc([C@H](C4CC4)C(C)(F)C(=O)O)c3)CC2)c1` (stereo partly drawn) [Cpd 78, (3S)-3-Cyclopropyl-2-fluoro-3-(3-(((4-(2-fluoro-5-methoxyphenyl)cyclohexyl)oxy)methyl)phenyl)-2-methylpropanoic acid]: the EC50 on human GPR40 came to 2.2 nM; on rat GPR40, 5.5 nM.

For the molecule `CC#CC(CC(=O)O)c1cccc(OC[C@H]2CC[C@@H](c3cc(OC)ccc3F)CC2)c1` (stereo partly shown) [Cpd 42, 3-(3-(((1 s,4s)-4-(2-Fluoro-5-methoxyphenyl)cyclohexyl)methoxy)phenyl)hex-4-ynoic acid], the concentration for a half-maximal effect (EC50) on human GPR40 was 3100 nM; at rat GPR40, 401 nM.

As for `COc1ccc(F)c([C@]2(O)CC[C@H](COc3cccc([C@@H](CC(=O)O)C4CC4)c3)CC2)c1` [Cpd 6, (S)-3-Cyclopropyl-3-(3-(((1r,4S)-4-(2-fluoro-5-methoxyphenyl)-4-hydroxycyclohexyl)methoxy)phenyl)propanoic acid], the concentration giving a half-maximal response (EC50) at human GPR40 was 377 nM.

For the molecule `COc1ccc(F)c([C@H]2CC[C@@H](COc3cncc(C(CC(=O)O)C4CC4)c3)CC2)c1` (stereo partly shown) [Cpd 18, 3-Cyclopropyl-3-(5-(((1s,4s)-4-(2-fluoro-5-methoxyphenyl)cyclohexyl)methoxy)pyridin-3-yl)propanoic acid], the EC50 at human GPR40 amounted to 226 nM.

As for `COc1cc([C@H]2CC[C@@H](COc3cccc(C(CC(=O)O)C4CC4)n3)CC2)c(F)cn1` (stereo partly shown) [Cpd 16, 3-Cyclopropyl-3-(6-(((1s,4s)-4-(5-fluoro-2-methoxypyridin-4-yl)cyclohexyl)methoxy)pyridin-2-yl)propanoic acid], on human GPR40, the 50% effective concentration (EC50) was 3080 nM.

`COc1cc([C@H]2CC[C@@H](COc3cncc(C(CC(=O)O)C4CC4)c3)CC2)c(F)cn1` (stereo partly shown) [Cpd 23, 3-Cyclopropyl-3-(5-(((1s,4s)-4-(5-fluoro-2-methoxypyridin-4-yl)cyclohexyl)methoxy)pyridin-3-yl)propanoic acid]: the concentration for a half-maximal effect (EC50) at human GPR40 came out at 307 nM.

Consider `COc1ccc(F)c([C@H]2CC[C@@H](COc3cccc(C(CC(=O)O)C4CC4)n3)CC2)c1` (stereo partly shown) [Cpd 14, 3-Cyclopropyl-3-(6-(((1 s,4s)-4-(2-fluoro-5-methoxyphenyl)cyclohexyl)methoxy)pyridin-2-yl)propanoic acid], for which the concentration for a half-maximal effect (EC50) on human GPR40 turned out to be 1500 nM.

The values are drawn from patent US10988433B2, “Cyclohexyl GPR40 agonists for the treatment of type II diabetes” (Janssen Pharmaceutica NV, priority 2016, dated 2021).
